The values that follow are results of earlier work, collected in patent US10881492B2, “Oral care compositions and regimens” (The Procter & Gamble Company, priority 2014, dated 2021).

Molecules are shown by their SMILES.

The conditions of this series: concentration level where the cooling effect can be clearly recognized.
With `CC(C)[C@@H]1CC[C@@H](C)C[C@@H]1O` [d-neomenthol], the cooling threshold result is given as “about 25,000 ppb”.

With `CC(C)[C@@H]1CC[C@@H](C)C[C@@H]1O` [Example 1-neomenthol, 1-neomenthol], the cooling threshold entry is recorded as “about 3,000 ppb”. For the molecule `CC(C)[C@@H]1CC[C@@H](C)C[C@H]1O` [L-menthol], the cooling threshold result was “about 800 ppb”.
